Source: patent US10662203B2, “Pyrido[2,3-b]indole compounds for the treatment and prophylaxis of bacterial infection” (Hoffmann-La Roche Inc., priority 2017, dated 2020)

Tests used:
Assay in all cases: 50% growth inhibitory concentration (IC50) determination assay
Format in all cases: cell-based
[1] = test system: A. baumannii (ATCC17978); settings: Acinetobacter baumannii, ATCC17978, A. baumannii ATCC17978; Iso-Sensitest broth; 0.098 = detection limit
Protocol: (§1) Stock compounds in DMSO were serially two-fold diluted (range from 50 to 0.097 μM final concentration) in 384 wells microtiter plates and inoculated with 49 μL the bacterial suspension in Iso-Sensitest broth medium to have a final cell concentration of ˜5×10^5 CFU/mL in a final volume/well of 50 μL/well. Microtiter plates were incubated at 35±2° C. Bacterial cell growth was determined with the measurement of optical density at λ=600 nm each 20 minutes over a time course of 16 h. […] GP-6 (Example 4.131 disclosed in WO 2012/125746 A1) was used as the reference compound in Table 6-8. […] The data of IC50 over S. aureus (ATCC29213), K. pneumoniae (ATCC10031), and A. baumannii (ATCC17978) are illustrated in Table 6.

[2] = test system: K. pneumoniae (ATCC10031); settings: Klebsiella pneumoniae, Iso-Sensitest broth, 0.098 = detection limit
Protocol: as §1

[3] = test system: S. aureus (ATCC29213); settings: Staphylococcus aureus, Iso-Sensitest broth, 0.098 = detection limit
Protocol: as §1

| SMILES | IC50 [1] | IC50 [2] | IC50 [3] |
| --- | --- | --- | --- |
| CNc1cc(F)c(F)c2c1[nH]c1ncc(-c3cnc4c(c3)c(=O)c(C(=O)O)cn4C)c(N(C)C)c12 [Example 1.01, 6-[4-(Dimethylamino)-5,6-difluoro-8-(methylamino)-9H-pyrido[2,3-b]indol-3-yl]-1-methyl-4-oxo-1,8-naphthyridine-3-carboxylic acid] | < 0.098 µM | < 0.098 µM | < 0.098 µM |
| CCn1cc(C(=O)O)c(=O)c2cc(-c3cnc4[nH]c5c(NC)cc(F)c(F)c5c4c3N(C)CCOC)cnc21 [Example 1.06] | 0.849 µM | 0.17 µM | < 0.098 µM |
| CNc1cc(F)c(F)c2c1[nH]c1ncc(-c3cnc4c(c3)c(=O)c(C(=O)O)cn4C)c(N3CCOCC3)c12 [Example 1.08] | 0.155 µM | < 0.098 µM | < 0.098 µM |
| CNc1cc(F)c(F)c2c1[nH]c1ncc(-c3cnc4c(c3)c(=O)c(C(=O)O)cn4C)c(N3CCNC(C(F)(F)F)C3)c12 (stereo not shown) [Example 1.09] | 0.818 µM | 0.104 µM | < 0.098 µM |
| CNc1cc(F)c(F)c2c1[nH]c1ncc(-c3cnc4c(c3)c(=O)c(C(=O)O)cn4C)c(N3CCOC(COC)C3)c12 (stereo not shown) [Example 1.10] | 0.192 µM | – | – |
| CNc1cc(F)cc2c1[nH]c1ncc(-c3cnc4c(c3)c(=O)c(C(=O)O)cn4C)c(N3CCC(F)(F)C3)c12 [Example 1.16] | 0.308 µM | < 0.098 µM | < 0.098 µM |
| CNc1cc(F)cc2c1[nH]c1ncc(-c3cnc4c(c3)c(=O)c(C(=O)O)cn4C(C)(C)CN3CCCC3)c(N(C)C)c12 [Example 1.17] | 0.515 µM | 0.101 µM | < 0.098 µM |
| CCn1cc(C(=O)O)c(=O)c2cc(-c3cnc4[nH]c5c(NC)cc(F)c(F)c5c4c3N(C)C)cnc21 [Example 1.18] | 0.326 µM | 0.132 µM | < 0.098 µM |
| CCn1cc(C(=O)O)c(=O)c2cc(-c3cnc4[nH]c5c(NC)cc(F)cc5c4c3N(C)C)cnc21 [Example 1.19] | 0.283 µM | 0.145 µM | < 0.098 µM |
| CCn1cc(C(=O)O)c(=O)c2cc(-c3cnc4[nH]c5c(NC)c(F)c(F)cc5c4c3N(C)C)cnc21 [Example 1.20] | 0.209 µM | 0.141 µM | < 0.098 µM |
| CNc1cc(F)c(F)c2c1[nH]c1ncc(-c3cnc4c(c3)c(=O)c(C(=O)O)cn4C3CCOC3)c(N(C)C)c12 (stereo not shown) [Example 1.21] | 0.469 µM | 0.154 µM | < 0.098 µM |
| CNc1cc(F)c(F)c2c1[nH]c1ncc(-c3cnc4c(c3)c(=O)c(C(=O)O)cn4CCOC)c(N(C)C)c12 [Example 1.24] | 0.519 µM | 0.238 µM | < 0.098 µM |
| CNc1cc(F)c(F)c2c1[nH]c1ncc(-c3cnc4c(c3)c(=O)c(C(=O)O)cn4CCN3CCN(C)CC3)c(N(C)C)c12 [Example 1.29] | 0.405 µM | < 0.098 µM | < 0.098 µM |
| CNc1cc(F)c(F)c2c1[nH]c1ncc(-c3cnc4c(c3)c(=O)c(C(=O)O)cn4Cc3ccncc3)c(N(C)C)c12 [Example 1.30] | 0.242 µM | – | < 0.098 µM |
| CNc1cc(F)c(F)c2c1[nH]c1ncc(-c3cnc4c(c3)c(=O)c(C(=O)O)cn4C)c(N(C)CCOC)c12 [Example 1.33] | 0.252 µM | < 0.098 µM | < 0.098 µM |
| CNc1cc(F)c(F)c2c1[nH]c1ncc(-c3cnc4c(c3)c(=O)c(C(=O)O)cn4C)c(N3CCO[C@@H](C)C3)c12 [Example 1.36] | 0.147 µM | < 0.098 µM | < 0.098 µM |
| CNc1cc(F)c(F)c2c1[nH]c1ncc(-c3cnc4c(c3)c(=O)c(C(=O)O)cn4CC3CCCO3)c(N3CCOCC3)c12 (stereo not shown) [Example 1.39] | 0.363 µM | 0.19 µM | < 0.098 µM |
| CNc1cc(F)c(F)c2c1[nH]c1ncc(-c3cnc4c(c3)c(=O)c(C(=O)O)cn4C)c(N3CCC(OC)CC3)c12 [Example 1.40] | 0.364 µM | 0.264 µM | < 0.098 µM |
| CNc1cc(F)cc2c1[nH]c1ncc(-c3cnc4c(c3)c(=O)c(C(=O)O)cn4C)c(N3CCCC3)c12 [Example 1.46] | 0.277 µM | < 0.098 µM | < 0.098 µM |
| CNc1cc(F)cc2c1[nH]c1ncc(-c3cnc4c(c3)c(=O)c(C(=O)O)cn4C)c(N3CCOCC3)c12 [Example 1.48] | 0.11 µM | < 0.098 µM | < 0.098 µM |
| CNc1cc(F)cc2c1[nH]c1ncc(-c3cnc4c(c3)c(=O)c(C(=O)O)cn4C)c(N3CCO[C@H](C)C3)c12 [Example 1.49] | 0.112 µM | < 0.098 µM | < 0.098 µM |
| CNc1cc(F)cc2c1[nH]c1ncc(-c3cnc4c(c3)c(=O)c(C(=O)O)cn4C)c(N3CCO[C@@H](C)C3)c12 [Example 1.50] | 0.112 µM | < 0.098 µM | < 0.098 µM |

| SMILES | IC50 [1] | IC50 [2] | IC50 [3] |
| --- | --- | --- | --- |
| CNc1cc(F)cc2c1[nH]c1ncc(-c3cnc4c(c3)c(=O)c(C(=O)O)cn4C)c(N3CCCOCC3)c12 [Example 1.60] | 0.248 µM | < 0.098 µM | < 0.098 µM |
| CNc1cc(F)c(F)c2c1[nH]c1ncc(-c3cnc4c(c3)c(=O)c(C(=O)O)cn4C3CCNC3)c(N3CCCC3)c12 (stereo not shown) [Example 1.65] | 0.378 µM | < 0.098 µM | < 0.098 µM |
| CNc1cc(F)cc2c1[nH]c1ncc(-c3cnc4c(c3)c(=O)c(C(=O)O)cn4C)c(N3CCSCC3)c12 [Example 1.66] | 0.415 µM | < 0.098 µM | < 0.098 µM |
| CNc1cc(F)cc2c1[nH]c1ncc(-c3cnc4c(c3)c(=O)c(C(=O)O)cn4CC(C)(C)N(C)C)c(N3CCOCC3)c12 [Example 1.69] | 0.438 µM | < 0.098 µM | < 0.098 µM |
| CNc1cc(F)cc2c1[nH]c1ncc(-c3cnc4c(c3)c(=O)c(C(=O)O)cn4C(C)CN(C)C)c(N3CCOCC3)c12 (stereo not shown) [Example 1.70] | 0.619 µM | < 0.098 µM | < 0.098 µM |
| CNc1cc(F)c(F)c2c1[nH]c1ncc(-c3cnc4c(c3)c(=O)c(C(=O)O)cn4NC)c(N(C)C)c12 [Example 1.72] | < 0.098 µM | < 0.098 µM | < 0.098 µM |
| CCN(CC)CCn1cc(C(=O)O)c(=O)c2cc(-c3cnc4[nH]c5c(NC)cc(F)c(F)c5c4c3N3CCOCC3)cnc21 [Example 1.73] | 0.238 µM | < 0.098 µM | < 0.098 µM |
| CNc1cc(F)c(F)c2c1[nH]c1ncc(-c3cnc4c(c3)c(=O)c(C(=O)O)cn4C)c(N3CCC(N(C)C4CC4)C3)c12 (stereo not shown) [Example 1.116] | 0.355 µM | – | – |
| CNc1cc(F)c(Cl)c2c1[nH]c1ncc(-c3cnc4c(c3)c(=O)c(C(=O)O)cn4C)c(N(C)C)c12 [Example 1.117] | 0.164 µM | – | – |
| CNc1cc(F)cc2c1[nH]c1ncc(-c3cnc4c(c3)c(=O)c(C(=O)O)cn4C)c(N3CCC(N(C)C4CC4)C3)c12 (stereo not shown) [Example 1.118] | 0.521 µM | – | – |
| CNc1cc(F)c(F)c2c1[nH]c1ncc(-c3cnc4c(c3)c(=O)c(C(=O)O)cn4C)c(N3CCC(O)(C(F)(F)F)C3)c12 (stereo not shown) [Example 1.129] | 0.302 µM | – | < 0.098 µM |
| CNc1cc(F)c(F)c2c1[nH]c1ncc(-c3cnc4c(c3)c(=O)c(C(=O)O)cn4C)c(N3C[C@H](F)[C@@H](N(C)C)C3)c12 [Example 1.159] | 0.189 µM | – | – |
| CNc1cc(F)c(F)c2c1[nH]c1ncc(-c3cnc4c(c3)c(=O)c(C(=O)O)cn4NC)c(N3CC[C@@H](N(C)C)C3)c12 [Example 1.257] | 0.201 µM | – | – |
| CNc1cc(Cl)cc2c1[nH]c1ncc(-c3cnc4c(c3)c(=O)c(C(=O)O)cn4C)c(N3CC4[C@H](CC[C@H]4N(C)C)C3)c12 (stereo partly shown) [Example 1.285] | 0.253 µM | – | – |
| CNc1cc(F)c(F)c2c1[nH]c1ncc(-c3cnc4c(c3)c(=O)c(C(=O)O)cn4C)c(N3CC4C(O)CO[C@@H]4C3)c12 (stereo partly shown) [Example 1.287] | 0.502 µM | – | – |
| CNc1cc(F)c(F)c2c1[nH]c1ncc(-c3cnc4c(c3)c(=O)c(C(=O)O)cn4C)c(N3CC4[C@H](CC[C@@H]4N(C)C)C3)c12 (stereo partly shown) [Example 1.288] | 0.269 µM | – | – |
| CNc1cc(Cl)cc2c1[nH]c1ncc(-c3cnc4c(c3)c(=O)c(C(=O)O)cn4C)c(N3CC[C@H]4CN(C)C[C@H]43)c12 [Example 3.11A] | 0.122 µM | – | – |
| CNc1cc(Cl)cc2c1[nH]c1ncc(-c3cnc4c(c3)c(=O)c(C(=O)O)cn4NC)c(N3CC[C@H]4CN(C)C[C@H]43)c12 [Example 3.12A] | 0.081 µM | – | – |
| CNc1cc(Cl)cc2c1[nH]c1ncc(-c3cnc4c(c3)c(=O)c(C(=O)O)cn4C)c(N3C[C@H]4CC[C@H](N(C)C)[C@H]4C3)c12 [Example 3.20A] | 0.149 µM | – | – |
| CNc1cc(Cl)cc2c1[nH]c1ncc(-c3cnc4c(c3)c(=O)c(C(=O)O)cn4C)c(N3C[C@@H]4CC[C@H](N(C)C)[C@@H]4C3)c12 [Example 3.20B] | 0.252 µM | – | – |
| CNc1cc(F)c(F)c2c1[nH]c1ncc(-c3cnc4c(c3)c(=O)c(C(=O)O)cn4C)c(N3CCN[C@H](C(F)(F)F)C3)c12 [Example 4.01A, (S)-6-(5,6-Difluoro-8-(methylamino)-4-(3-(trifluoromethyl)piperazin-1-yl)-9H-pyrido[2,3-b]indol-3-yl)-1-methyl-4-oxo-1,4-dihydro-1,8-naphthyridine-3-carboxylic acid] | 0.393 µM | – | – |
| CNc1cc(F)c(F)c2c1[nH]c1ncc(-c3cnc4c(c3)c(=O)c(C(=O)O)cn4C)c(N3CCN[C@@H](C(F)(F)F)C3)c12 [Example 4.01B, (R)-6-(5,6-Difluoro-8-(methylamino)-4-(3-(trifluoromethyl)piperazin-1-yl)-9H-pyrido[2,3-b]indol-3-yl)-1-methyl-4-oxo-1,4-dihydro-1,8-naphthyridine-3-carboxylic acid] | 0.352 µM | – | – |
